PubChem BioAssay (NCI)
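Grown in 96-well plates, cells were treated for 48 hours with each compound at five concentrations. Insufficient inhibition: endpoint recorded as highest concentration tested. At the GI50, growth is halved. TGI denotes the concentration required for complete inhibition of growth.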

How the values were obtained:
Assay in all cases: NCI anticancer screen, dose series, 48 h
HCT-116 colon = tested on: HCT-116 colon
SNB-19 CNS = tested on: SNB-19 CNS
SN12C renal = tested on: SN12C renal
SK-OV-3 ovarian = tested on: SK-OV-3 ovarian
PC-3 prostate = tested on: PC-3 prostate
A549 NSCLC = tested on: A549 NSCLC
HCC-2998 colon = tested on: HCC-2998 colon
CCRF-CEM leukemia = tested on: CCRF-CEM leukemia
HCT-15 colon = tested on: HCT-15 colon
RPMI-8226 leukemia = tested on: RPMI-8226 leukemia
NCI-H460 lung = tested on: NCI-H460 lung
SF-539 CNS = tested on: SF-539 CNS
UACC-62 melanoma = tested on: UACC-62 melanoma
K-562 leukemia = tested on: K-562 leukemia
DU-145 prostate = tested on: DU-145 prostate
HOP-62 NSCLC = tested on: HOP-62 NSCLC
U251 CNS = tested on: U251 CNS
COLO 205 colon = tested on: COLO 205 colon
RXF 393 renal = tested on: RXF 393 renal
T-47D breast = tested on: T-47D breast
OVCAR-8 ovarian = tested on: OVCAR-8 ovarian
NCI-H226 lung = tested on: NCI-H226 lung
SW-620 colon = tested on: SW-620 colon
SNB-75 CNS = tested on: SNB-75 CNS
OVCAR-3 ovarian = tested on: OVCAR-3 ovarian
NCI-H23 lung = tested on: NCI-H23 lung
TK-10 renal = tested on: TK-10 renal
SR leukemia = tested on: SR leukemia
786-0 renal = tested on: 786-0 renal
MALME-3M melanoma = tested on: MALME-3M melanoma
UACC-257 melanoma = tested on: UACC-257 melanoma
SK-MEL-28 melanoma = tested on: SK-MEL-28 melanoma
NCI-H522 lung = tested on: NCI-H522 lung
MOLT-4 leukemia = tested on: MOLT-4 leukemia
MDA-MB-231 breast = tested on: MDA-MB-231 breast
SF-295 CNS = tested on: SF-295 CNS
NCI/ADR-RES ovarian = tested on: NCI/ADR-RES ovarian
OVCAR-5 ovarian = tested on: OVCAR-5 ovarian
MCF7 breast = tested on: MCF7 breast
KM12 colon = tested on: KM12 colon
HOP-92 NSCLC = tested on: HOP-92 NSCLC
A498 renal = tested on: A498 renal
OVCAR-4 ovarian = tested on: OVCAR-4 ovarian
EKVX NSCLC = tested on: EKVX NSCLC
SF-268 CNS = tested on: SF-268 CNS
IGROV1 ovarian = tested on: IGROV1 ovarian
BT-549 breast = tested on: BT-549 breast
ACHN renal = tested on: ACHN renal
MDA-MB-435 = tested on: MDA-MB-435
LOX IMVI melanoma = tested on: LOX IMVI melanoma
HL-60(TB) leukemia = tested on: HL-60(TB) leukemia
M14 melanoma = tested on: M14 melanoma
SK-MEL-5 melanoma = tested on: SK-MEL-5 melanoma
UO-31 renal = tested on: UO-31 renal
SK-MEL-2 melanoma = tested on: SK-MEL-2 melanoma
HS 578T breast = tested on: HS 578T breast
HT29 colon = tested on: HT29 colon

Structure (SMILES): NC(N)=NC(N)=Nc1cc2ccccc2c2ccccc12
- GI50 (HCT-116 colon): 5.33 µM
- TGI (HCT-116 colon): 18.3 µM
- GI50 (SNB-19 CNS): 7.69 µM
- TGI (SNB-19 CNS): 21.6 µM
- GI50 (SN12C renal): 5.3 µM
- TGI (SN12C renal): 19.9 µM
- GI50 (SK-OV-3 ovarian): 11.4 µM
- TGI (SK-OV-3 ovarian): 24 µM
- GI50 (PC-3 prostate): 7.51 µM
- TGI (PC-3 prostate): 24.9 µM
- GI50 (A549 NSCLC): 4.58 µM
- TGI (A549 NSCLC): 18.1 µM
- GI50 (HCC-2998 colon): 6.89 µM
- TGI (HCC-2998 colon): 24.2 µM
- GI50 (CCRF-CEM leukemia): 8.61 µM
- TGI (CCRF-CEM leukemia): 30.5 µM
- GI50 (HCT-15 colon): 14.9 µM
- TGI (HCT-15 colon): 30.5 µM
- GI50 (RPMI-8226 leukemia): 4.49 µM
- TGI (RPMI-8226 leukemia): 26 µM
- GI50 (NCI-H460 lung): 5.13 µM
- TGI (NCI-H460 lung): 19.4 µM
- GI50 (SF-539 CNS): 10.6 µM
- TGI (SF-539 CNS): 23.5 µM
- GI50 (UACC-62 melanoma): 12.1 µM
- TGI (UACC-62 melanoma): 25.8 µM
- GI50 (K-562 leukemia): 4.34 µM
- TGI (K-562 leukemia): 21.9 µM
- GI50 (DU-145 prostate): 11.9 µM
- TGI (DU-145 prostate): 25 µM
- GI50 (HOP-62 NSCLC): 8.53 µM
- TGI (HOP-62 NSCLC): 22.8 µM
- GI50 (U251 CNS): 4.83 µM
- TGI (U251 CNS): 18.1 µM
- GI50 (COLO 205 colon): 1.84 µM
- TGI (COLO 205 colon): 4.49 µM
- GI50 (RXF 393 renal): 10.6 µM
- TGI (RXF 393 renal): 24.1 µM
- GI50 (T-47D breast): 11 µM
- TGI (T-47D breast): 29.3 µM
- GI50 (OVCAR-8 ovarian): 5.15 µM
- TGI (OVCAR-8 ovarian): 20.6 µM
- GI50 (NCI-H226 lung): 10.5 µM
- TGI (NCI-H226 lung): 25.5 µM
- GI50 (SW-620 colon): 6.5 µM
- TGI (SW-620 colon): 21.4 µM
- GI50 (SNB-75 CNS): 5.12 µM
- TGI (SNB-75 CNS): 19.9 µM
- GI50 (OVCAR-3 ovarian): 12.3 µM
- TGI (OVCAR-3 ovarian): 26.6 µM
- GI50 (NCI-H23 lung): 12.3 µM
- TGI (NCI-H23 lung): 29.7 µM
- GI50 (TK-10 renal): 6.08 µM
- TGI (TK-10 renal): 20.5 µM
- GI50 (SR leukemia): 2.68 µM
- TGI (SR leukemia): 9.34 µM
- GI50 (786-0 renal): 7.23 µM
- TGI (786-0 renal): 22.5 µM
- GI50 (MALME-3M melanoma): 7.16 µM
- TGI (MALME-3M melanoma): 22.1 µM
- GI50 (UACC-257 melanoma): 10.5 µM
- TGI (UACC-257 melanoma): 22.9 µM
- GI50 (SK-MEL-28 melanoma): 13.2 µM
- TGI (SK-MEL-28 melanoma): 26.2 µM
- GI50 (NCI-H522 lung): 5.66 µM
- TGI (NCI-H522 lung): 21.5 µM
- GI50 (MOLT-4 leukemia): 2.91 µM
- TGI (MOLT-4 leukemia): 13.7 µM
- GI50 (MDA-MB-231 breast): 3.52 µM
- TGI (MDA-MB-231 breast): 16 µM
- GI50 (SF-295 CNS): 13.3 µM
- TGI (SF-295 CNS): 28.4 µM
- GI50 (NCI/ADR-RES ovarian): 17 µM
- TGI (NCI/ADR-RES ovarian): 43.2 µM
- GI50 (OVCAR-5 ovarian): 11 µM
- TGI (OVCAR-5 ovarian): 24.3 µM
- GI50 (MCF7 breast): 3.7 µM
- TGI (MCF7 breast): 18.8 µM
- GI50 (KM12 colon): 12.3 µM
- TGI (KM12 colon): 27.2 µM
- GI50 (HOP-92 NSCLC): 1.31 µM
- TGI (HOP-92 NSCLC): 11 µM
- GI50 (A498 renal): 1.39 µM
- TGI (A498 renal): 10.1 µM
- GI50 (OVCAR-4 ovarian): 10.1 µM
- TGI (OVCAR-4 ovarian): 25.9 µM
- GI50 (EKVX NSCLC): 12 µM
- TGI (EKVX NSCLC): 29.1 µM
- GI50 (SF-268 CNS): 9.61 µM
- TGI (SF-268 CNS): 24.1 µM
- GI50 (IGROV1 ovarian): 4.04 µM
- TGI (IGROV1 ovarian): 19.1 µM
- GI50 (BT-549 breast): 10.5 µM
- TGI (BT-549 breast): 22.8 µM
- GI50 (ACHN renal): 5.07 µM
- TGI (ACHN renal): 17.3 µM
- GI50 (MDA-MB-435): 12.4 µM
- TGI (MDA-MB-435): 25.4 µM
- GI50 (LOX IMVI melanoma): 5.15 µM
- TGI (LOX IMVI melanoma): 22 µM
- GI50 (HL-60(TB) leukemia): 10.5 µM
- TGI (HL-60(TB) leukemia): 26.3 µM
- GI50 (M14 melanoma): 10.6 µM
- TGI (M14 melanoma): 24.7 µM
- GI50 (SK-MEL-5 melanoma): 10.4 µM
- TGI (SK-MEL-5 melanoma): 22.8 µM
- GI50 (UO-31 renal): 5.05 µM
- TGI (UO-31 renal): 19.9 µM
- GI50 (SK-MEL-2 melanoma): 13.6 µM
- TGI (SK-MEL-2 melanoma): 30.5 µM
- GI50 (HS 578T breast): 11.5 µM
- TGI (HS 578T breast): 33.8 µM
- GI50 (HT29 colon): 7.83 µM
- TGI (HT29 colon): 23.6 µM
